{
  "source": "patent US20130338130A1",
  "about": "(priority 2009, published 2013)",
  "key": {"[1]": {"tested_on": "ATCC strain 43300 Staphylococcus aureus", "conditions": "for recovery after enrichment in Mueller-Hinton broth: 1 cfu detection limit", "procedure": "Additional antibiotic was added every 24 hours. The growth periods tested were 24 (see FIG. 4), 48, 72, 96 and 120 hours.\nUSP<51> Antimicrobial Effectiveness protocol was used as the template experimental paradigm. […] All concentrations were plated out to the 10^−7 dilutions to ascertain cfu/ml. […] Additional antibiotic was added at the initial concentration every 24 hours.\nATCC strain 43300 Staphylococcus aureus was streaked out for isolations. An isolated colony was chosen, streaked again and incubated. Isolate was chosen and then diluted to a McFarland standard of one. The estimated value was then taken to inoculate tubes containing growth media and 12, 30 or 60 μg/ml oxacillin with approximately 10^5 cfu/ml. These tubes were incubated and plated for counting cfu. A clone having no observed log reduction in cfu was selected for the rest of the experiment.\nMaterial was calculated on a 10 ml volume. Sterile oxacillin was added to each experimental condition to a final concentration of 12, 30 or 60 μg/ml antibiotic.\nAll tubes were then inoculated with a dilution of the selected ATCC strain 43300 Staphylococcus aureus clone giving a final level of colony forming units of 3.3×10^5/ml (log=5.52). The tubes were incubated at 25° C. and mixed periodically. Antibiotic was re-inoculated every 24 hours at the initial concentration to maintain pressure on the organism. Plating was done at 24, 48, 72, and 120 hours. Each condition was plated by diluting 1 ml of growth material into 9 ml of MLB diluent broth. […] This mixture was serial diluted down to 10^−7 with 1 ml placed in triplicate in a sterile petri dish at each dilution point. 20 mls of TSA was added to each dilution, swirled and allowed to solidify. All dilutions were placed in a 35° C. incubator for 24 to 72 hours. Bacterial colonies on each plate were counted and the average taken then changed into log format. Any cfu/ml observed greater than 3.3×10^5 (log=5.5) were recorded as >3.3×10^5.\nThe tube was then taken out of the experiment and tested for ATCC strain 43300 Staphylococcus growth. The tube was spun down at 5000 rpm for 10 minutes. The supernatant was then decanted into 90 mls of Mueller-Hinton broth with 6 μg/ml oxacillin. This is for enrichment and the recovery of any MRSA cells that may be present whether healthy or stressed. The pellet had 10 mls Mueller-Hinton broth with 6 μg/ml oxacillin added to it to recover any cells that may be present. Both vessels were incubated at 35° C. for 48 hours followed by plating every 24 hours. Each vessel was plated at 10 dilutions to obtain a 1 cfu detection limit."}, "[2]": {"tested_on": "ATCC strain 43300 Staphylococcus aureus", "assay": "MSM alone, MRSA survival (Example 1)", "conditions": "5-16% MSM alone, no antibiotic, 24 or 48 hour", "procedure": "USP<51> Antimicrobial Effectiveness protocol was used as the template experimental paradigm. […] All concentrations were plated out to the 10^−7 dilutions to ascertain cfu/ml.\nMaterial was calculated on a 10 ml volume.\nAll tubes were inoculated with a dilution of MRSA giving a final level of colony forming units of 2.0×10^5/ml (Log=5.23). The tubes were incubated at 25° C. and mixed periodically. Plating was done at 24 and 48 hours. Each condition was plated by diluting 1 ml of growth material into 9 ml of MLB diluent broth. This mixture was serial diluted down to 10^−7, and 1 ml placed in a sterile petri dish at each dilution point. 20 mls of TSA was added to each dilution, swirled and allowed to solidify. All dilutions were placed in a 35° C. incubator for 24 hours. Bacterial colonies on each plate were counted and colony counts changed into log format. A positive and negative control was ascertained."}},
  "note": "Where two headings read alike, the source gives them in different places.",
  "data": [
    {"smiles": "CS(C)(=O)=O", "note": "[MSM, Methylsulfonylmethane]", "values": [
      {"measurement": "survival, Average Log", "setting": "[1]; 30 μg/ml oxacillin + MSM (% in label), 48 hours, listed as 8% MSM", "value": 3.1, "unit": "Log"},
      {"measurement": "survival, Average Log", "setting": "[1]; 30 μg/ml oxacillin + MSM (% in label), 48 hours, listed as 9% MSM", "value": 2.4, "unit": "Log"},
      {"measurement": "survival, Average Log", "setting": "[1]; 30 μg/ml oxacillin + MSM (% in label), 48 hours, listed as 10% MSM", "value": 2.6, "unit": "Log"},
      {"measurement": "survival, Average Log", "setting": "[1]; 30 μg/ml oxacillin + MSM (% in label), 48 hours, listed as 11% MSM", "value": 2.4, "unit": "Log"},
      {"measurement": "survival, Average Log", "setting": "[1]; 30 μg/ml oxacillin + MSM (% in label), 48 hours, listed as 12% MSM", "value": 2.6, "unit": "Log"},
      {"measurement": "survival, Average Log", "setting": "[1]; 30 μg/ml oxacillin + MSM (% in label), 48 hours, listed as 13% MSM", "value": 2.5, "unit": "Log"},
      {"measurement": "survival, Average Log", "setting": "[1]; 30 μg/ml oxacillin + MSM (% in label), 48 hours, listed as 14% MSM", "value": 2.5, "unit": "Log"},
      {"measurement": "survival, Average Log", "setting": "[1]; 30 μg/ml oxacillin + MSM (% in label), 48 hours, listed as 15% MSM", "value": 2.8, "unit": "Log"},
      {"measurement": "survival, Average Log", "setting": "[1]; 30 μg/ml oxacillin + MSM (% in label), 48 hours, listed as 16% MSM", "value": 2.6, "unit": "Log"},
      {"measurement": "survival, Average Log", "setting": "[1]; 30 μg/ml oxacillin + MSM (% in label), 72 hours, listed as 5% MSM", "value": 5.5, "unit": "Log"},
      {"measurement": "survival, Average Log", "setting": "[1]; 30 μg/ml oxacillin + MSM (% in label), 72 hours, listed as 6% MSM", "value": 5.5, "unit": "Log"},
      {"measurement": "survival, Average Log", "setting": "[1]; 30 μg/ml oxacillin + MSM (% in label), 72 hours, listed as 7% MSM", "value": 4.5, "unit": "Log"},
      {"measurement": "survival, Average Log", "setting": "[1]; 30 μg/ml oxacillin + MSM (% in label), 72 hours, listed as 8% MSM", "value": 5.5, "unit": "Log"},
      {"measurement": "survival, Average Log", "setting": "[1]; 30 μg/ml oxacillin + MSM (% in label), 72 hours, listed as 9% MSM", "value": 2.9, "unit": "Log"},
      {"measurement": "survival, Average Log", "setting": "[1]; 30 μg/ml oxacillin + MSM (% in label), 72 hours, listed as 10% MSM", "value": 3.9, "unit": "Log"},
      {"measurement": "survival, Average Log", "setting": "[1]; 30 μg/ml oxacillin + MSM (% in label), 72 hours, listed as 11% MSM", "value": 3.2, "unit": "Log"},
      {"measurement": "survival, Average Log", "setting": "[1]; 30 μg/ml oxacillin + MSM (% in label), 72 hours, listed as 12% MSM", "value": 2.6, "unit": "Log"},
      {"measurement": "survival, Average Log", "setting": "[1]; 30 μg/ml oxacillin + MSM (% in label), 72 hours, listed as 13% MSM", "value": 1.8, "unit": "Log"},
      {"measurement": "survival, Average Log", "setting": "[1]; 30 μg/ml oxacillin + MSM (% in label), 72 hours, listed as 14% MSM", "value": 2.2, "unit": "Log"},
      {"measurement": "survival, Average Log", "setting": "[1]; 30 μg/ml oxacillin + MSM (% in label), 72 hours, listed as 15% MSM", "value": 2.4, "unit": "Log"},
      {"measurement": "survival, Average Log", "setting": "[1]; 30 μg/ml oxacillin + MSM (% in label), 72 hours, listed as 16% MSM", "value": 1.9, "unit": "Log"},
      {"measurement": "recovery after enrichment in Mueller-Hinton broth", "setting": "[1]; 30 μg/ml oxacillin, 120 hours", "value": "total kill"},
      {"measurement": "survival, Average Log", "setting": "[1]; 60 μg/ml oxacillin + MSM (% in label), 24 hours, listed as 5% MSM", "value": 2.54, "unit": "Log"},
      {"measurement": "survival, Average Log", "setting": "[1]; 60 μg/ml oxacillin + MSM (% in label), 24 hours, listed as 6% MSM", "value": 2.38, "unit": "Log"},
      {"measurement": "survival, Average Log", "setting": "[1]; 60 μg/ml oxacillin + MSM (% in label), 24 hours, listed as 7% MSM", "value": 2.34, "unit": "Log"},
      {"measurement": "survival, Average Log", "setting": "[1]; 60 μg/ml oxacillin + MSM (% in label), 24 hours, listed as 8% MSM", "value": 2.67, "unit": "Log"},
      {"measurement": "survival, Average Log", "setting": "[1]; 60 μg/ml oxacillin + MSM (% in label), 24 hours, listed as 9% MSM", "value": 2.50, "unit": "Log"},
      {"measurement": "survival, Average Log", "setting": "[1]; 60 μg/ml oxacillin + MSM (% in label), 24 hours, listed as 10% MSM", "value": 2.63, "unit": "Log"},
      {"measurement": "survival, Average Log", "setting": "[1]; 60 μg/ml oxacillin + MSM (% in label), 24 hours, listed as 11% MSM", "value": 2.83, "unit": "Log"},
      {"measurement": "survival, Average Log", "setting": "[1]; 60 μg/ml oxacillin + MSM (% in label), 24 hours, listed as 12% MSM", "value": 2.86, "unit": "Log"},
      {"measurement": "survival, Average Log", "setting": "[1]; 60 μg/ml oxacillin + MSM (% in label), 24 hours, listed as 13% MSM", "value": 2.80, "unit": "Log"},
      {"measurement": "survival, Average Log", "setting": "[1]; 60 μg/ml oxacillin + MSM (% in label), 24 hours, listed as 14% MSM", "value": 2.03, "unit": "Log"},
      {"measurement": "survival, Average Log", "setting": "[1]; 60 μg/ml oxacillin + MSM (% in label), 24 hours, listed as 15% MSM", "value": 3.81, "unit": "Log"},
      {"measurement": "survival, Average Log", "setting": "[1]; 60 μg/ml oxacillin + MSM (% in label), 24 hours, listed as 16% MSM", "value": 3.83, "unit": "Log"},
      {"measurement": "survival, Average Log", "setting": "[1]; 60 μg/ml oxacillin + MSM (% in label), 48 hours, listed as 5% MSM", "value": 3.5, "unit": "Log"},
      {"measurement": "survival, Average Log", "setting": "[1]; 60 μg/ml oxacillin + MSM (% in label), 48 hours, listed as 6% MSM", "value": 1.8, "unit": "Log"},
      {"measurement": "survival, Average Log", "setting": "[1]; 60 μg/ml oxacillin + MSM (% in label), 48 hours, listed as 7% MSM", "value": 4.0, "unit": "Log"},
      {"measurement": "survival, Average Log", "setting": "[1]; 60 μg/ml oxacillin + MSM (% in label), 48 hours, listed as 8% MSM", "value": 2.8, "unit": "Log"},
      {"measurement": "survival, Average Log", "setting": "[1]; 60 μg/ml oxacillin + MSM (% in label), 48 hours, listed as 9% MSM", "value": 2.2, "unit": "Log"},
      {"measurement": "survival, Average Log", "setting": "[1]; 60 μg/ml oxacillin + MSM (% in label), 48 hours, listed as 10% MSM", "value": 2.2, "unit": "Log"},
      {"measurement": "survival, Average Log", "setting": "[1]; 60 μg/ml oxacillin + MSM (% in label), 48 hours, listed as 11% MSM", "value": 2.1, "unit": "Log"},
      {"measurement": "survival, Average Log", "setting": "[1]; 60 μg/ml oxacillin + MSM (% in label), 48 hours, listed as 12% MSM", "value": 2.0, "unit": "Log"},
      {"measurement": "survival, Average Log", "setting": "[1]; 60 μg/ml oxacillin + MSM (% in label), 48 hours, listed as 13% MSM", "value": 1.7, "unit": "Log"},
      {"measurement": "survival, Average Log", "setting": "[1]; 60 μg/ml oxacillin + MSM (% in label), 48 hours, listed as 14% MSM", "value": 2.2, "unit": "Log"},
      {"measurement": "survival, Average Log", "setting": "[1]; 60 μg/ml oxacillin + MSM (% in label), 48 hours, listed as 15% MSM", "value": 2.1, "unit": "Log"},
      {"measurement": "survival, Average Log", "setting": "[1]; 60 μg/ml oxacillin + MSM (% in label), 48 hours, listed as 16% MSM", "value": 1.9, "unit": "Log"},
      {"measurement": "survival, Average Log", "setting": "[1]; 60 μg/ml oxacillin + MSM (% in label), 72 hours, listed as 11% MSM", "value": 1, "unit": "Log"},
      {"measurement": "survival, Average Log", "setting": "[1]; 60 μg/ml oxacillin + MSM (% in label), 72 hours, listed as 12% MSM", "value": 2.4, "unit": "Log"},
      {"measurement": "survival, Average Log", "setting": "[1]; 60 μg/ml oxacillin + MSM (% in label), 72 hours, listed as 13% MSM", "value": 1, "unit": "Log"},
      {"measurement": "survival, Average Log", "setting": "[1]; 60 μg/ml oxacillin + MSM (% in label), 72 hours, listed as 14% MSM", "value": 1.5, "unit": "Log"},
      {"measurement": "survival, Average Log", "setting": "[1]; 60 μg/ml oxacillin + MSM (% in label), 72 hours, listed as 16% MSM", "value": 1.8, "unit": "Log"},
      {"measurement": "log reduction in the number of cfu/ml", "setting": "[1]; 60 μg/ml oxacillin, 24 hours", "value": 3.5, "unit": "log"},
      {"measurement": "recovery after enrichment in Mueller-Hinton broth", "setting": "[1]; 60 μg/ml oxacillin, 72 hours", "value": "total kill"},
      {"measurement": "recovery after enrichment in Mueller-Hinton broth", "setting": "[1]; 60 μg/ml oxacillin, 96 hours", "value": "total kill"},
      {"measurement": "recovery after enrichment in Mueller-Hinton broth", "setting": "[1]; 60 μg/ml oxacillin, 120 hours", "value": "total kill"},
      {"measurement": "growth", "setting": "[1]; positive 5%, 10%, and 16% MSM controls, no antibiotic, 24 hours", "value": "signs of turbid growth"},
      {"measurement": "effect on survival", "setting": "[2]", "value": "none of the concentrations of MSM tested had any effect on the survival"}
    ]}
  ]
}
